Target: T1, Serine/threonine-protein kinase B-raf (Homo sapiens, UniProt P15056, V600E)
Test: Inhibition of B-Raf V600E mutant in human Malme-3M cells assessed as basal ERK phosphorylation
Type: cell-based
Settings: not given

T1 sequence (P15056 2-766 V600E limits assumed): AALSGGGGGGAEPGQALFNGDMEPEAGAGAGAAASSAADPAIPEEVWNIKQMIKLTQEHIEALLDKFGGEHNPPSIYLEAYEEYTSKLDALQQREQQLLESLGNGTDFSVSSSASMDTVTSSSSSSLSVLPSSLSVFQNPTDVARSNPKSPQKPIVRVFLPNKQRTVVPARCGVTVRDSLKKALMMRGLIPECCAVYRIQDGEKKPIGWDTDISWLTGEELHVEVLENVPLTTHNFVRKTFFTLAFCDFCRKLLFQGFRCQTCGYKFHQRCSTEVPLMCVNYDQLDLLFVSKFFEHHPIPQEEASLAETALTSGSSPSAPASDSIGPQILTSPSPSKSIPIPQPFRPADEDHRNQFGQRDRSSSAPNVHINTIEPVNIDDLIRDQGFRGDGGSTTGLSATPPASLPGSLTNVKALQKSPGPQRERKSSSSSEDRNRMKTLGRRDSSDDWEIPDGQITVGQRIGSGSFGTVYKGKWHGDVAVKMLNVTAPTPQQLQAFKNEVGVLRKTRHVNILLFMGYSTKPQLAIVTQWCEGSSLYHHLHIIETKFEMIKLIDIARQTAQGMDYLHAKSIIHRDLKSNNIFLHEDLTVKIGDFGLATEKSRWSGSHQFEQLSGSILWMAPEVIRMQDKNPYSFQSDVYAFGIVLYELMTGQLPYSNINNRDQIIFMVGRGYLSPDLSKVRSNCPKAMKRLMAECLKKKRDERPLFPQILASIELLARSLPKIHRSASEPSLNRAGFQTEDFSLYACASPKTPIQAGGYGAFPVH

Row | Compound | IC50 [nM]
1 | CCCS(=O)(=O)Nc1ccc(F)c(C(=O)Nc2cnc3[nH]c(-c4cccc(Br)c4)nc3c2)c1F | 172
2 | CCCS(=O)(=O)Nc1ccc(F)c(C(=O)Nc2cnc3[nH]c(-c4ccc(F)cc4)cc3c2)c1F | 20
3 | CCCS(=O)(=O)Nc1ccc(F)c(C(=O)Nc2cnc3[nH]c(-c4ccccc4F)nc3c2)c1F | 167
4 | CCCS(=O)(=O)Nc1ccc(F)c(C(=O)Nc2cnc3[nH]c(-c4cccc(OC)c4)nc3c2)c1F | 271
5 | CCCS(=O)(=O)Nc1ccc(F)c(C(=O)Nc2cnc3[nH]c(-c4cccc(F)c4)nc3c2)c1F | 298
6 | CCCS(=O)(=O)Nc1ccc(F)c(C(=O)Nc2cnc3[nH]c(-c4ccc(Cl)cc4)cc3c2)c1F | 20
7 | CCCS(=O)(=O)Nc1ccc(F)c(C(=O)Nc2cnc3[nH]c(-c4ccc(F)c(F)c4)nc3c2)c1F | 194

Next, values leading:

Row | IC50 [nM] | Compound
8 | 1560 | CCCS(=O)(=O)Nc1ccc(F)c(C(=O)Nc2cnc3[nH]c(C(C)(C)C)nc3c2)c1F
9 | 1050 | CCCS(=O)(=O)Nc1ccc(F)c(C(=O)Nc2cnc3[nH]c(-c4ccc(F)cc4)nc3c2)c1F
10 | 948 | CCCS(=O)(=O)Nc1ccc(F)c(C(=O)Nc2cnc3[nH]c(-c4ccccc4Br)nc3c2)c1F
11 | 1730 | CCCS(=O)(=O)Nc1ccc(F)c(C(=O)Nc2cnc3[nH]c(C(C)C)nc3c2)c1F
12 | 61 | CCCS(=O)(=O)Nc1ccc(F)c(C(=O)Nc2cnc3[nH]c(-c4ccc(Br)cc4)nc3c2)c1F
13 | > 10000 | CCCS(=O)(=O)Nc1ccc(F)c(C(=O)Nc2cnc3[nH]c(C4CCNCC4)nc3c2)c1F
14 | 557 | CCCS(=O)(=O)Nc1ccc(F)c(C(=O)Nc2cnc3[nH]c(-c4ccccc4Cl)nc3c2)c1F

Tested on: Serine/threonine-protein kinase B-raf (Homo sapiens), P15056 [V600E]
Sequence (P15056 whole entry V600E): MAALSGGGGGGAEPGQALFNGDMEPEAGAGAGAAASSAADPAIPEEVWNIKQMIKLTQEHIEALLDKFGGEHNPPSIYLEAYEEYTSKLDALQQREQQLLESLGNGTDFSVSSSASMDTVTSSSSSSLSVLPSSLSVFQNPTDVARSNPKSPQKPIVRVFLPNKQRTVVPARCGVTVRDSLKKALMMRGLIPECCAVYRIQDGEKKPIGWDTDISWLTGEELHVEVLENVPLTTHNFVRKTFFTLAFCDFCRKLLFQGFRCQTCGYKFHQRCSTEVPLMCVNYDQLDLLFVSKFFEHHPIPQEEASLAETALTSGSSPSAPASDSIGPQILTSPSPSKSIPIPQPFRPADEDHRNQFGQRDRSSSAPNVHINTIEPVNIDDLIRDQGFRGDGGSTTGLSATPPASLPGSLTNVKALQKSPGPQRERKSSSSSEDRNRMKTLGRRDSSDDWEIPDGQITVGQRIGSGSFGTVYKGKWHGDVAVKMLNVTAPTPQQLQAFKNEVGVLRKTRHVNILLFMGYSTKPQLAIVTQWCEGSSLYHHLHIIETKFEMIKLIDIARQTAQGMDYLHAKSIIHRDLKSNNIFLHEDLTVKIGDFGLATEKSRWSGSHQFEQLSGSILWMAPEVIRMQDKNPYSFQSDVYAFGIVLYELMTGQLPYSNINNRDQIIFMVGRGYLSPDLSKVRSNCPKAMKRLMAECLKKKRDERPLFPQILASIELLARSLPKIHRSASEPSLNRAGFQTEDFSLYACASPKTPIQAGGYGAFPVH
Test: Ratio of IC50 for B-Raf V600E mutant in human Malme-3M cells to IC50 for full length B-Raf V600E mutant (unknown origin)
Type: cell-based
Settings: not given

Row | Compound | Ratio IC50
15 | CCCS(=O)(=O)Nc1ccc(F)c(C(=O)Nc2cnc3cc(-c4ccc(F)cc4)nn3c2)c1F | 4.9
16 | CCCS(=O)(=O)Nc1ccc(F)c(C(=O)Nc2cnc3[nH]cnc3c2)c1F | 39
17 | CCCS(=O)(=O)Nc1ccc(F)c(C(=O)Nc2cnc3[nH]c(-c4cccc(Br)c4)nc3c2)c1F | 226
18 | CCCS(=O)(=O)Nc1ccc(F)c(C(=O)Nc2cnc3[nH]c(-c4ccc(F)cc4)cc3c2)c1F | 18
19 | CCCS(=O)(=O)Nc1ccc(F)c(C(=O)Nc2cnc3[nH]c(-c4ccccc4F)nc3c2)c1F | 21
20 | CCCS(=O)(=O)Nc1ccc(F)c(C(=O)Nc2cnc3[nH]c(-c4cccc(OC)c4)nc3c2)c1F | 219
21 | CCCS(=O)(=O)Nc1ccc(F)c(C(=O)Nc2cnc3[nH]c(-c4cccc(F)c4)nc3c2)c1F | 97
22 | CCCS(=O)(=O)Nc1ccc(F)c(C(=O)Nc2cnc3[nH]c(-c4ccc(Cl)cc4)cc3c2)c1F | 8.4
23 | CCCS(=O)(=O)Nc1ccc(F)c(C(=O)Nc2cnc3[nH]c(-c4ccc(F)c(F)c4)nc3c2)c1F | 57

The remaining lines, values ahead:

Row | Ratio IC50 | Compound
24 | 23 | CCCS(=O)(=O)Nc1ccc(F)c(C(=O)Nc2cnc3[nH]c(C(C)(C)C)nc3c2)c1F
25 | 240 | CCCS(=O)(=O)Nc1ccc(F)c(C(=O)Nc2cnc3[nH]c(-c4ccc(F)cc4)nc3c2)c1F
26 | 35 | CCCS(=O)(=O)Nc1ccc(F)c(C(=O)Nc2cnc3[nH]c(-c4ccccc4Br)nc3c2)c1F
27 | 29 | CCCS(=O)(=O)Nc1ccc(F)c(C(=O)Nc2cnc3[nH]c(C(C)C)nc3c2)c1F
28 | 28 | CCCS(=O)(=O)Nc1ccc(F)c(C(=O)Nc2cnc3[nH]c(-c4ccc(Br)cc4)nc3c2)c1F
29 | > 93 | CCCS(=O)(=O)Nc1ccc(F)c(C(=O)Nc2cnc3[nH]c(C4CCNCC4)nc3c2)c1F
30 | 21 | CCCS(=O)(=O)Nc1ccc(F)c(C(=O)Nc2cnc3[nH]c(-c4ccccc4Cl)nc3c2)c1F

Target: T1, Serine/threonine-protein kinase B-raf
Test: Inhibition of full length B-Raf V600E mutant (unknown origin)
Settings: not given

Row | Compound | IC50 [nM]
31 | CCCS(=O)(=O)Nc1ccc(F)c(C(=O)Nc2cnc3[nH]c(-c4cccc(Br)c4)nc3c2)c1F | 0.76
32 | CCCS(=O)(=O)Nc1ccc(F)c(C(=O)Nc2cnc3[nH]c(-c4ccc(F)cc4)cc3c2)c1F | 1.1
33 | CCCS(=O)(=O)Nc1ccc(F)c(C(=O)Nc2cnc3[nH]c(-c4ccccc4F)nc3c2)c1F | 8
34 | CCCS(=O)(=O)Nc1ccc(F)c(C(=O)Nc2cnc3[nH]c(-c4cccc(OC)c4)nc3c2)c1F | 1.2
35 | CCCS(=O)(=O)Nc1ccc(F)c(C(=O)Nc2cnc3[nH]c(-c4cccc(F)c4)nc3c2)c1F | 3.1
36 | CCCS(=O)(=O)Nc1ccc(F)c(C(=O)Nc2cnc3[nH]c(-c4ccc(Cl)cc4)cc3c2)c1F | 2.4
37 | CCCS(=O)(=O)Nc1ccc(F)c(C(=O)Nc2cnc3[nH]ncc3c2)c1F | 18
38 | CCCS(=O)(=O)Nc1ccc(F)c(C(=O)Nc2cnc3[nH]ccc3c2)c1F | 42
39 | CCCS(=O)(=O)Nc1ccc(F)c(C(=O)Nc2cnc3[nH]c(-c4ccc(F)c(F)c4)nc3c2)c1F | 3.4

Other lines, results leading:

Row | IC50 [nM] | Compound
40 | 69 | CCCS(=O)(=O)Nc1ccc(F)c(C(=O)Nc2cnc3[nH]c(C(C)(C)C)nc3c2)c1F
41 | 4.4 | CCCS(=O)(=O)Nc1ccc(F)c(C(=O)Nc2cnc3[nH]c(-c4ccc(F)cc4)nc3c2)c1F
42 | 27 | CCCS(=O)(=O)Nc1ccc(F)c(C(=O)Nc2cnc3[nH]c(-c4ccccc4Br)nc3c2)c1F
43 | 60 | CCCS(=O)(=O)Nc1ccc(F)c(C(=O)Nc2cnc3[nH]c(C(C)C)nc3c2)c1F
44 | 2.2 | CCCS(=O)(=O)Nc1ccc(F)c(C(=O)Nc2cnc3[nH]c(-c4ccc(Br)cc4)nc3c2)c1F
45 | 107 | CCCS(=O)(=O)Nc1ccc(F)c(C(=O)Nc2cnc3[nH]c(C4CCNCC4)nc3c2)c1F
46 | 27 | CCCS(=O)(=O)Nc1ccc(F)c(C(=O)Nc2cnc3[nH]c(-c4ccccc4Cl)nc3c2)c1F

Tested on: not listed separately
Test: Permeability from apical to basolateral side in human Caco2 cells
Type: ADME, cell-based
Settings: Caco-2, read-out: permeability

Row | Compound | Papp A→B [×10⁻⁶ cm/s]
47 | CCCS(=O)(=O)Nc1ccc(F)c(C(=O)Nc2cnc3ccnn3c2)c1F | 11.4
48 | CCCS(=O)(=O)Nc1ccc(F)c(C(=O)Nc2cnc3cc(-c4ccccc4)nn3c2)c1F | 15.6
49 | CCCS(=O)(=O)Nc1ccc(F)c(C(=O)Nc2cnc3[nH]cnc3c2)c1F | 0.6
50 | CCCS(=O)(=O)Nc1ccc(F)c(C(=O)Nc2cnc3[nH]ncc3c2)c1F | 1.3
51 | CCCS(=O)(=O)Nc1ccc(F)c(C(=O)Nc2cnc3[nH]c(-c4ccc(Br)cc4)nc3c2)c1F | 1.3
52 | CCCS(=O)(=O)Nc1ccc(F)c(C(=O)Nc2cnc3[nH]ccc3c2)c1F | 7.3
